# Measured values published in patent US20220000967A1, “SYNTHETIC PEPTIDES INDUCING IMMUNOGENIC CELL DEATH” (SORBONNE UNIVERSITE, priority 2018, published 2022).
# Read-outs that look alike come from different tables or passages of the source.
# Assays:
# [1] = Cell death by Annexin-V-APC/PI flow cytometry; assay type: cell-based, human; details: CEM, 2h; read-out: cytotoxic concentration that induces around 50% of cell death (CC50)
# Experimental: (§1) CEM, MOLT-4 (T-acute lymphoblastic leukemia, T-ALL), and L5178Y-R (murine lymphoblastic T cell line) were obtained from ATCC. Human and murine PBMCs, human CD4+ and CD8+ T cells, and primary lymphoid organ's cells were obtained from healthy individuals. Cells were maintained in RPMI-1640 medium supplemented with 10% of fetal bovine serum, 2 mM L-glutamine, 100 U/mL penicillin-streptomycin (GIBCO by Life Technologies, Grand Island, N.Y., USA), and incubated at 37° C. in a controlled humidified atmosphere with 5% CO2. Cell count was performed using trypan blue (0.4% Sigma-Aldrich), a Neubauer chamber and an optic microscope (Zeiss Primo Star) as proposed by the ATCC's standard protocols. Flow Cytometry. Cell Death Induction, and Inhibition Annexin-V-allophycocyanin (Ann-V-APC 0.1 μg/ml; BD Pharingen, San Jose Calif., USA), propidium iodide (PI, 0.5 μg/ml Sigma-Aldrich), and tetramethylrhodamine ethyl ester (TMRE, 20 nM, Sigma-Aldrich) were used for phosphatidylserine exposure, cell viability, and mitochondrial transmembrane potential (UΨm) quantification, respectively, in a BD AccuryC6 flow cytometer (BD Biosciences) (total population 10,000 cells). Data were analyzed using FlowJo software. 1×10^6 cells/mL were treated for 2h with PKHB1 (as indicated). For the inhibition assays, calcium chelator, BAPTA (5 mM, CalbioChem, Merck, Billerica Mass., USA); or the pancaspase inhibitor Q-VD-OPh (QVD, 10 μM, BioVision, Milpitas Calif., USA); were added 30 min before PKHB1.
# CEM [2] = assay: Cell death by Annexin-V-APC/PI flow cytometry; assay type: cell-based, human; details: 2h; for cell death percentage: PKHB1 200 μM
# Experimental: as §1
# [3] = Cell death by Annexin-V-APC/PI flow cytometry; assay type: cell-based; details: MOLT-4, 2h; read-out: cytotoxic concentration that induces around 50% of cell death (CC50)
# Experimental: as §1
# MOLT-4 [4] = assay: Cell death by Annexin-V-APC/PI flow cytometry; assay type: cell-based; details: MOLT-4, 2h; for cell death percentage: PKHB1 200 μM
# Experimental: as §1
# [5] = Cell death by Annexin-V-APC/PI flow cytometry; assay type: cell-based, murine; details: L5178Y-R, 2h; read-out: cytotoxic concentration that induces around 50% of cell death (CC50)
# Experimental: as §1
# L5178Y-R [6] = assay: Cell death by Annexin-V-APC/PI flow cytometry; assay type: cell-based, murine; details: 2h; for cell death percentage: PKHB1 200 μM
# Experimental: as §1
# CEM [7] = assay: Loss of mitochondrial transmembrane potential (TMRE); assay type: cell-based, human; details: PKHB1 CC50, 2h
# Experimental: as §1, with “For the inhibition assays, calcium chelator, BAPTA (5 mM, CalbioChem, Merck, Billerica Mass., USA); or the pancaspase inhibitor Q-VD-OPh (QVD, 10 μM, BioVision, Milpitas Calif., USA); were added 30 min before PKHB1.” left out
# MOLT-4 [8] = assay: as above; assay type: cell-based, human; details: PKHB1 CC50, 2h
# Experimental: as §1, with “For the inhibition assays, calcium chelator, BAPTA (5 mM, CalbioChem, Merck, Billerica Mass., USA); or the pancaspase inhibitor Q-VD-OPh (QVD, 10 μM, BioVision, Milpitas Calif., USA); were added 30 min before PKHB1.” left out
# L5178Y-R [9] = assay: as above; assay type: cell-based, murine; details: PKHB1 CC50, 2h
# Experimental: as §1, with “For the inhibition assays, calcium chelator, BAPTA (5 mM, CalbioChem, Merck, Billerica Mass., USA); or the pancaspase inhibitor Q-VD-OPh (QVD, 10 μM, BioVision, Milpitas Calif., USA); were added 30 min before PKHB1.” left out
# [10] = system: human PBMCs and CD4+ and CD8+ human T cells from healthy donors; assay: Selectivity on non-cancerous human cells (Annexin-V/PI); assay type: cell-based
# Experimental: Peripheral blood was collected from 10 healthy volunteers after obtaining written informed consent. This study was approved by the Institutional Ethics Committee at the Universidad Autonoma de Nuevo Leon, College of Biological Sciences. The animal study was approved by the Animal Ethical Committee (CEIBA), Number: 01/2015. All experiments were conducted according to Mexican regulation NOM-062-ZOO-1999. The blood from sacrificed mice was obtained by cardiac puncture, while human blood was collected by venipuncture. Peripheral blood mononuclear cells (PBMCs) isolation was performed by density gradient centrifugation using Ficoll-Hypaque-1119 (Sigma-Aldrich, St Louis, Mo., USA). 4×10^5 white blood cells were washed and seeded. […]
# CEM, MOLT-4 (T-acute lymphoblastic leukemia, T-ALL), and L5178Y-R (murine lymphoblastic T cell line) were obtained from ATCC. […] Cell Death Induction, and Inhibition Annexin-V-allophycocyanin (Ann-V-APC 0.1 μg/ml; BD Pharingen, San Jose Calif., USA), propidium iodide (PI, 0.5 μg/ml Sigma-Aldrich), and tetramethylrhodamine ethyl ester (TMRE, 20 nM, Sigma-Aldrich) were used for phosphatidylserine exposure, cell viability, and mitochondrial transmembrane potential (UΨm) quantification, respectively, in a BD AccuryC6 flow cytometer (BD Biosciences) (total population 10,000 cells). Data were analyzed using FlowJo software. […]
# [11] = system: murine PBMCs and primary cultures of bone marrow, spleen, thymus and lymph nodes; assay: Selectivity on non-cancerous murine cells (Ann/PI, MTT); assay type: cell-based; details: lymph nodes of healthy BALB/c mice
# Experimental: Peripheral blood was collected from 10 healthy volunteers after obtaining written informed consent. This study was approved by the Institutional Ethics Committee at the Universidad Autonoma de Nuevo Leon, College of Biological Sciences. The animal study was approved by the Animal Ethical Committee (CEIBA), Number: 01/2015. All experiments were conducted according to Mexican regulation NOM-062-ZOO-1999. The blood from sacrificed mice was obtained by cardiac puncture, while human blood was collected by venipuncture. Peripheral blood mononuclear cells (PBMCs) isolation was performed by density gradient centrifugation using Ficoll-Hypaque-1119 (Sigma-Aldrich, St Louis, Mo., USA). 4×10^5 white blood cells were washed and seeded. CD4+/CD8+ characterization was done using primary antibodies (CD4; MT310 sc-19641 and CD8; 32-M4 sc-1177, Santa Cruz, Calif., USA).
# Spleen, thymus, lymphatic node, and bone marrow cells were obtained from female BALB/c mice post-sacrifice. Spleen cells were obtained through perfusion, thymocytes and lymphatic node cells were obtained by maceration, and bone morrow cells (from one femur and tibia per mouse) were flushed with PBS. Cells washed and counted using trypan blue staining.
# CEM, MOLT-4 (T-acute lymphoblastic leukemia, T-ALL), and L5178Y-R (murine lymphoblastic T cell line) were obtained from ATCC. […] Data were analyzed using FlowJo software. […]
# L5178Y-R tumor = assay: PKHB1 treatment of L5178Y-R tumor-bearing mice; assay type: in vivo, BALB/c mice; details: 200 μg PKHB1 intraperitoneally weekly; day 18
# Experimental: The heparinized blood acquired from mice, was assessed using the Automatic Hematology Analyzer KontroLab. Blood smears were performed and fixed with methanol, stained with Wright's, and observed under the microscope to perform differential blood white cells counts.
# Six-to-eight-week-old BALB/c female mice were maintained in controlled environmental conditions (25° C. and 12h light/dark cycle) and were supplied with rodent food (Science diet) and water ad libitum. • Prophylactic vaccinations: L5178Y-R cells (1.5, 3, 5×10^6) were treated with 300 μM of PKHB1 (CC100) for 2h. Cell death was confirmed using trypan blue staining and flow cytometry. Treated cells were inoculated subcutaneously in 100 μl PBS into the left hind of the leg, whereas 2×10^6 untreated control cells were inoculated into the right hind 7 days later (42). • Tumor establishment and measurement: Tumor was established by the subcutaneous injection of 1×10^6 L5178Y-R cells in 100 μL PBS, into the left hind of the leg. Tumor volume and weight were measured three times per week using a caliper (Digimatic Caliper Mitutoyo Corporation, Japan) and a digital scale (American Weigh Scale-600-BLK, USA). When the tumor reached 100 mm^3 the first PKHB1 injection (200 μg) was applied (day 0). Tumor volume was determined with the formula: tumor volume (mm3)=[…]*A*B*C. Long-term memory assay: Mice in complete remission after PKHB1 treatment, were rechallenged with 2×10^6 cells in 100 μL of PBS, into the opposite limb, and tumor volume was measured like described above.
# Tissues and organs were obtained and fixed in 10% neutral formalin, embedded in paraffin, sectioned (5 µm thickness) and stained with H&E (Sigma-Aldrich, St Louis, Mo., USA). Histopathological analysis was done by an external veterinarian pathologist (National professional certificate 2593012). Immunohistochemistry was done using the appropriate primary antibody (CD4/CD8) and adding the biotinylated secondary antibody. Finally, hematoxylin-counterstained slides are coverslipped using resin as mounting solution and observed under microscopy.
# [12] = pre-incubated 30 min with Ca2+ chelator BAPTA
# [13] = pre-incubated 30 min with pan-caspase inhibitor Q-VD-OPH
smiles,measurement,setting,value
"CSCC[C@H](NC(=O)[C@@H](NC(=O)[C@@H](NC(=O)[C@H](Cc1ccc(O)cc1)NC(=O)[C@H](Cc1ccccc1)NC(=O)[C@H](CCCNC(=N)N)NC(=O)[C@H](N)CCCCN)C(C)C)C(C)C)C(=O)N[C@@H](Cc1c[nH]c2ccccc12)C(=O)N[C@@H](CCCCN)C(=O)N[C@H](CCCCN)C(=O)O [PKHB1, (D)K-R-F-Y-V-V-M-W-K-(D)K]",CC50,[1],200 µM
same,cell death (Ann-V-APC/PI positive cells),"CEM [2]; 100, 200 and 300 μM",concentration-dependent
same,cell death percentage,CEM [2]; left alone,51%±4
same,cell death percentage,CEM [2]; [12],18%±11
same,cell death percentage,CEM [2]; [13],48%±5
same,CC50,[3],300 µM
same,cell death (Ann-V-APC/PI positive cells),"MOLT-4 [4]; 100, 200 and 300 μM",concentration-dependent
same,cell death percentage,MOLT-4 [4]; left alone,57%±4
same,cell death percentage,MOLT-4 [4]; [12],38%±3
same,cell death percentage,MOLT-4 [4]; [13],51%±6
same,CC50,[5],200 µM
same,cell death (Ann-V-APC/PI positive cells),"L5178Y-R [6]; 100, 200 and 300 μM",concentration-dependent
same,CC100,L5178Y-R [6],300 µM
same,cell death percentage,L5178Y-R [6]; left alone,52%±5
same,cell death percentage,L5178Y-R [6]; [12],21%±8
same,cell death percentage,L5178Y-R [6]; [13],49%±3
same,loss of mitochondrial membrane potential,CEM [7],49%±5
same,loss of mitochondrial membrane potential,MOLT-4 [8],61%±4
same,loss of mitochondrial membrane potential,L5178Y-R [9],51%±8
same,cell viability of non-cancerous cells,[10],did not significantly affected cell viability
same,cell viability of non-cancerous cells,[11],did not significantly affected cell viability
same,"tumor histology (H&E), leukocyte infiltration",L5178Y-R tumor,contained a mixture of lymphocytes and polymorphonuclear cells
